Laboratory results: US20080268092A1, “Capsaicin Nutritional Supplement” (priority 2004, published 2008)

What was measured:
[1] = Personal experience of capsaicin use; assay type: in vivo; details: humans
[2] = cited from earlier work
[3] = animal models; cited from earlier work
[4] = cited from earlier work; remark: listed apart in the source

## COc1cc(CNC(=O)CCCC/C=C/C(C)C)ccc1O [Capsaicin]
[1]
  effects of use on energy, exercise capacity, endurance, mood, appetite, alertness: boosts energy, increases exercise capacity, increases endurance, improves mood, decreases appetite and increases alertness
[2]
  solubility in water: only slightly soluble in water
[3]
  endurance capacity: increase endurance capacity
  lipolysis: promote lipolysis

## Cn1c(=O)c2c(ncn2C)n(C)c1=O [caffeine]
[4]; healthy individuals
  mean half-life in plasma: about 5 hours
[4]; in vivo
  blood-brain barrier passage: readily crosses the blood-brain barrier
